Laboratory results taken from US9265774B2, “Methods, compounds and pharmaceutical compositions for treating anxiety and mood disorders” (New York University, priority 2011, dated 2016).

Key:
[1] = tested on: locomotor behavior in an open field; experiment: Open field locomotor behavior after ivt. 6FNE or i.p. dp6FNE versus amphetamine; format: in vivo, mice; settings: 6FNE ivt. or dp6FNE i.p.
Method: 6FNE and dp6FNe were tested for their effects on motor activity by measuring locomotor behavior in an open field after either ivt. (6FNE) or i.p. injection (dp6fNE) in mice. These mice were compared to animals that were either non handled or received either a vehicle ivt injection or an i.p. injection of the stimulant, amphetamine (5 mg/kg). The results are shown in FIG. 6 and in (Stone, Lin Y, Sarfraz Y, and Quartermain D, 2011). […] Furthermore, the increase in activity after 6FNE was minor in comparison with the bona fide stimulant, amphetamine which produced a 10 fold increase. The small increase over the vehicle group therefore appears to be the result of a reduction of the stress caused by the handling and restraint for the ivt. injection which is in agreement with the reduced activation of brain stress circuits discussed above. This interpretation was supported by an examination of the time in the center or risky area of the field spent by the various groups. […] A slight reduction in motor behavior at the low doses (0.1-0.3 mg/kg) were, however, observed.

Fos expression in the LC = Fos expression in the LC during the RFS model; format: in vivo, mice; settings: dp6FNE 3 mg/kg i.p. 15 min prior to the 5th swim, with prazosin 0.2 mg/kg; swum animals, versus vehicle
Method: In the RFS study, mice were subjected to 4 daily 15 min swims as described above and were injected i.p. with either vehicle or dp6FNE (3 mg/kg) 15 min prior to the 5th swim. In the TST study, animals were injected similarly before a 6 min test. […] The animals were anesthetized and perfused for immuno-histochemistry 70 min after the start of the swim or tail suspension. Brains were processed as described previously for double-label immunofluorescent Fos/tyrosine hydroxylase staining of all sections through the LC and for single-label Fos staining through the full PVH (Stone et al., Brain Res (2009) 1291: 21-31). […] In the tail suspended mice the analogous reductions were 53.5±7.2% (LC) and 36.7±3.1 (PVH). […] These findings thus indicate that a dose of […] dp6FNE that has preferential inhibitory effects on the LC during depression exists.

[2] = tested on: home cage exploration in handling-stressed mice; experiment: Home cage activity after handling and injection stress; format: in vivo; settings: i.p.; dp6FNE (1 mg/kg) in the presence of phentolamine; cirazoline (0.1 mg/kg)
Method: FIG. 15 depicts the effect of acute i.p. dp6FNE (1 mg/kg) or cirazoline (0.1 mg/kg), (N=1), on home cage activity in terms of rearing and ambulation, Veh (N=12).
6FNE has a more rapid and/or greater antidepressant effect than either of these agonists because 6FNE is the only known selective α-agonist that has full efficacy at all brain α-adrenoceptors and 6FNE works within minutes (Stone, et al. 2011) whereas cirazoline was given to mice over several months prior to testing in one model (forced swim test) in the above experiment by Doze et al, 2009. […] (Stone, E A, Lin Y, Quartermain, D, Unpublished results)
It is known that peripheral administration of α1-agonists without phentolamine impairs exploratory behavior in the open field (Yang, et al., J Pharmacol exp Ther 1990; 255: 1064-1070).

For CC(C)(C)C(=O)Oc1cc(F)c(C(O)CN)cc1OC(=O)C(C)(C)C (stereo not shown) [dp6FNE, dipivalyl-6-fluoronorepinephrine], the “effect on motor activity in the open field” value [1] was “did not produce any stimulation of motor behavior”, the “time in the center of the field” value [1] was “significant increase in the time in the center of the field” and the “reduction in gene expression (Fos) in the LC” value (Fos expression in the LC) was 33.6±6.8. For the same molecule, the “behavioral inhibition in the home cage following handling and injection stress” value [2] was “rescue of home cage exploration”.
